Laboratory results reported in patent US20030236306A1, “Stabilized formulations of alpha adrenergic receptor antagonists and the uses thereof” (priority 2002, published 2003).
“Also recorded” adds a separate entry of the source. Structures can show the parent of a compound that is named as a salt.

Legend:
[1] = Wide-range pH-stability profiling at 40° C.; assay type: physicochemical; conditions: 0.1 mg/ml, pH 2-8, 50 mM phosphate or acetate, FIG. 1
Description: (§1) The drug is monitored at a detection wavelength of 232 nm.
All samples were stored in the dark.
The phosphate buffers were prepared by adding phosphoric acid (3.40 ml) to de-ionized (DI) water, adjusting the pH with 2 N NaOH, and bringing the volume to 1 L in a volumetric flask. The acetate buffers were prepared by adding acetic acid (2.95 ml) to water, adjusting the pH value with 2 N NaOH, and bringing the volume to 1 L in a volumetric flask.
Measurements were performed for pH after samples had been analyzed by HPLC.
In all stability studies, glass serum vials with rubber closures and flip-top seals were used for storage of the samples to minimize fluid loss. The weights of samples were measured at the beginning of the experiment, prior to sampling for analysis, and after resealing the vials to monitor for any weight loss due to heating. No significant weight loss was observed.
At each pH, the concentration was divided by the corresponding initial concentration (day 0) to obtain the percent recovery. The percent recovery was plotted against time for calculation of first-order rate kinetics. The slope of each pH line was calculated as the rate constant and plotted against pH to obtain a wide-range pH-stability profile.

[2] = tested on: local anesthesia by 2% polocaine (mepivacaine hydrochloride) with levonordefrin; assay: Reversal of local anesthesia by LARA versus saline vehicle, bilateral injection in human subjects; assay type: in vivo; conditions: three subjects, 0.05 mg/ml phentolamine mesylate (0.08 mg)
Description: An injection of the physiological saline vehicle (without phentolamine mesylate) served as the control. […] This was followed by injection of the phentolamine mesylate containing local anesthetic reversal agent (LARA) into one side of the oral cavity, and injection of the saline vehicle (control) solution into the opposite side of the oral cavity. The time to reversal of the local anesthetic effect on both sides was then recorded to determine whether there is a difference between the two sides.
The local anesthetic used was 2% polocaine (mepivacaine hydrochloride) with levonordefrin (1:20,000=0.05 mg/ml) (levonordefrin injection, USP) (Astra USA, Inc., Westborough, Mass. 01581). Levonordefrin is a sympathomimetic amine with a pharmacological profile similar to that of epinephrine, but with a lower potency.
Three healthy, male human subjects, age 34-50, volunteered to have local anesthetic injected in the mouth bilaterally under the lip in an easily repeatable location. The exact time of each injection was recorded. The position chosen was above (apical) the prominence of the root of the upper cuspid teeth. This is a common site selected to numb the cuspids, lateral incisors and upper lip. The volume of the local anesthetic injected was 1.7+0.1 ml on each side of the mouth. […]

[3] = systemic doses, usually with marked hypotensive episodes; cited from earlier work
[4] = Effect of sodium acetate buffer concentration on stability, pH 3.5, 60° C.; assay type: physicochemical
Description: as §1
Tightly sealed glass vials containing the test solutions were placed in an oven at 40° C. or 60° C. All samples were stored in the dark. Aliquots were removed at designated time points for HPLC analysis and pH measurement.
In conjunction with HPLC analysis, pH was measured. The measurement was performed using the same samples as used for the HPLC analysis. The pH meter was calibrated using pH 4.00 and 7.00 buffer standards prior to each measurement.
Samples were incubated at 60° C. with scheduled testing performed at day 0, 2, 7, and 14. The various buffer concentrations were prepared by diluting the 50 mM buffer with water and re-examining the pH value to determine if the pH 3.5 was constant. Measurements of pH were performed after HPLC analysis of the samples.

[5] = tested on: local anesthetic containing an alpha adrenergic receptor agonist; conditions: solution of 0.05 mg/ml; cited from earlier work
[6] = Tonicity testing by vapor pressure osmometer; assay type: physicochemical; conditions: 0.5 mg/ml disodium EDTA, pH 3.5
Excerpt: A vapor pressure osmometer (Westcore Model 5500) was used to measure the osmolarity of the solutions as well as a control of Normal Saline solution (0.9% sodium chloride, USP). The tonicity of the phentolamine solutions was represented by osmolarity. The measured osmolarity was plotted against d-mannitol concentration. A linear relationship was obtained between the osmolarity and d-mannitol concentration. The concentration of d-mannitol required to achieve the same osmolarity as the Normal Saline solution was calculated for the 10 or 50 mM sodium acetate buffered solution.

Cc1ccc(N(CC2=NCCN2)c2cccc(O)c2)cc1 [Phentolamine Mesylate, phentolamine mesylate]
wide-range pH-stability profile (rate of degradation) [1]: significant increase in rate of degradation was observed at pH above 7; also recorded: samples prepared in acetate buffers appeared to be more stable than their counterparts in the phosphate buffers | side-effects [2]: no side-effects of any kind | side effects reported in package insert [3]: Myocardial infarction, cerebrovascular spasm, and cerebrovascular occlusion have been reported | pH ([4]; Sodium Acetate 0 mM (un-buffered), Day 0): 3.6 | pH ([4]; Sodium Acetate 0 mM (un-buffered), Day 2): 4.4 | pH ([4]; Sodium Acetate 0 mM (un-buffered), Day 7): 5.1 | pH ([4]; Sodium Acetate 0 mM (un-buffered), Day 14): 5.3 | pH ([4]; Sodium Acetate 5 mM, Day 0): 3.5 | pH ([4]; Sodium Acetate 5 mM, Day 2): 3.8 | pH ([4]; Sodium Acetate 5 mM, Day 7): 3.8 | pH ([4]; Sodium Acetate 5 mM, Day 14): 3.8 | pH ([4]; Sodium Acetate 10 mM, Day 0): 3.5 | pH ([4]; Sodium Acetate 10 mM, Day 2): 3.7 | pH ([4]; Sodium Acetate 10 mM, Day 7): 3.8 | pH ([4]; Sodium Acetate 10 mM, Day 14): 3.7 | pH ([4]; Sodium Acetate 50 mM, Day 0): 3.5 | pH ([4]; Sodium Acetate 50 mM, Day 2): 3.6 | pH ([4]; Sodium Acetate 50 mM, Day 7): 3.6 | pH ([4]; Sodium Acetate 50 mM, Day 14): 3.6 | reversal of local anesthetic effect [5]: can rapidly reverse the effect of a local anesthetic | Calculated % Mannitol for Isotonicity ([6]; 10 mM sodium acetate): 5.03% | Calculated % Mannitol for Isotonicity ([6]; 50 mM sodium acetate): 4.39% | Measured Osmolality ([6]; 2% Mannitol, 10 mM sodium acetate): 176 mmol/kg | Measured Osmolality ([6]; 2% Mannitol, 50 mM sodium acetate): 193 mmol/kg | Measured Osmolality ([6]; 3% Mannitol, 10 mM sodium acetate): 213 mmol/kg | Measured Osmolality ([6]; 3% Mannitol, 50 mM sodium acetate): 234 mmol/kg | Measured Osmolality ([6]; 4% Mannitol, 10 mM sodium acetate): 253 mmol/kg | Measured Osmolality ([6]; 4% Mannitol, 50 mM sodium acetate): 276 mmol/kg
